Values after ≈ are worked out from the molar mass of the structure shown.
How the values were obtained:
Format in all cases: functional
Pseudomonas aeruginosa [1] = test: Antimicrobial activity against Pseudomonas aeruginosa 1951-00
Pseudomonas aeruginosa [2] = test: Antimicrobial activity against Pseudomonas aeruginosa 1752-00
Pseudomonas aeruginosa [3] = test: Antimicrobial activity against Pseudomonas aeruginosa 1753-00
Pseudomonas aeruginosa [4] = test: Antimicrobial activity against Pseudomonas aeruginosa 1957-00
Pseudomonas aeruginosa [5] = test: Antimicrobial activity against Pseudomonas aeruginosa 1569-05
Pseudomonas aeruginosa [6] = test: Antimicrobial activity against Pseudomonas aeruginosa 1570-05
Pseudomonas aeruginosa [7] = test: Antimicrobial activity against Pseudomonas aeruginosa 1613-09
Pseudomonas aeruginosa [8] = test: Antimicrobial activity against Pseudomonas aeruginosa 1954-00
Pseudomonas aeruginosa [9] = test: Antimicrobial activity against Pseudomonas aeruginosa PA-4624
Pseudomonas aeruginosa [10] = test: Antimicrobial activity against Pseudomonas aeruginosa 1565-05
Pseudomonas aeruginosa [11] = test: Antimicrobial activity against Pseudomonas aeruginosa 1566-05
Pseudomonas aeruginosa [12] = test: Antimicrobial activity against Pseudomonas aeruginosa 1567-05
Pseudomonas aeruginosa [13] = test: Antimicrobial activity against Pseudomonas aeruginosa 1568-05
Pseudomonas aeruginosa [14] = test: Antimicrobial activity against Pseudomonas aeruginosa 1767-00
Pseudomonas aeruginosa [15] = test: Antimicrobial activity against Pseudomonas aeruginosa 1768-00
Pseudomonas aeruginosa [16] = test: Antimicrobial activity against Pseudomonas aeruginosa 1956-00
Pseudomonas aeruginosa [17] = test: Antimicrobial activity against Pseudomonas aeruginosa PA-75
Pseudomonas aeruginosa [18] = test: Antimicrobial activity against Pseudomonas aeruginosa 1955-00
Pseudomonas aeruginosa [19] = test: Antimicrobial activity against Pseudomonas aeruginosa 1561-05
Pseudomonas aeruginosa [20] = test: Antimicrobial activity against Pseudomonas aeruginosa 1563-00
Pseudomonas aeruginosa [21] = test: Antimicrobial activity against Pseudomonas aeruginosa 1564-05
Pseudomonas aeruginosa [22] = test: Antimicrobial activity against Pseudomonas aeruginosa 1615-09
Pseudomonas aeruginosa [23] = test: Antimicrobial activity against Pseudomonas aeruginosa 1761-00
Pseudomonas aeruginosa [24] = test: Antimicrobial activity against Pseudomonas aeruginosa 1764-00
Pseudomonas aeruginosa [25] = test: Antimicrobial activity against Pseudomonas aeruginosa 1765-00
Pseudomonas aeruginosa [26] = test: Antimicrobial activity against Pseudomonas aeruginosa 1766-00
Pseudomonas aeruginosa [27] = test: Antimicrobial activity against Pseudomonas aeruginosa 1952-00
Pseudomonas aeruginosa [28] = test: Antimicrobial activity against Pseudomonas aeruginosa 1953-00
Pseudomonas aeruginosa [29] = test: Antimicrobial activity against Pseudomonas aeruginosa 1562-05
Pseudomonas aeruginosa [30] = test: Antimicrobial activity against Pseudomonas aeruginosa 1611-09
Pseudomonas aeruginosa [31] = test: Antimicrobial activity against Pseudomonas aeruginosa 1614-09
Pseudomonas aeruginosa [32] = test: Antimicrobial activity against Pseudomonas aeruginosa 1619-08
Pseudomonas aeruginosa [33] = test: Antimicrobial activity against Pseudomonas aeruginosa 1760-00
Pseudomonas aeruginosa [34] = test: Antimicrobial activity against Pseudomonas aeruginosa PA-1757
Pseudomonas aeruginosa [35] = test: Antimicrobial activity against Pseudomonas aeruginosa 1527-08
Pseudomonas aeruginosa [36] = test: Antimicrobial activity against Pseudomonas aeruginosa PA-4991
Pseudomonas aeruginosa [37] = test: Antimicrobial activity against Pseudomonas aeruginosa PA-4999
Pseudomonas aeruginosa [38] = test: Antimicrobial activity against Pseudomonas aeruginosa 1612-09
Pseudomonas aeruginosa [39] = test: Antimicrobial activity against Pseudomonas aeruginosa PA-4995
Pseudomonas aeruginosa [40] = test: Antimicrobial activity against Pseudomonas aeruginosa 1513-08
Pseudomonas aeruginosa [41] = test: Antimicrobial activity against Pseudomonas aeruginosa 1515-08
Pseudomonas aeruginosa [42] = test: Antimicrobial activity against Pseudomonas aeruginosa PA-4990
Pseudomonas aeruginosa [43] = test: Antimicrobial activity against Pseudomonas aeruginosa PA-4997
Pseudomonas aeruginosa [44] = test: Antimicrobial activity against Pseudomonas aeruginosa 1523-08
Pseudomonas aeruginosa [45] = test: Antimicrobial activity against Pseudomonas aeruginosa PA-4993
Pseudomonas aeruginosa [46] = test: Antimicrobial activity against Pseudomonas aeruginosa 1509-08
Pseudomonas aeruginosa [47] = test: Antimicrobial activity against Pseudomonas aeruginosa 1510-08
Pseudomonas aeruginosa [48] = test: Antimicrobial activity against Pseudomonas aeruginosa 1512-08
Pseudomonas aeruginosa [49] = test: Antimicrobial activity against Pseudomonas aeruginosa 1514-08
Pseudomonas aeruginosa [50] = test: Antimicrobial activity against Pseudomonas aeruginosa 1521-08
Pseudomonas aeruginosa [51] = test: Antimicrobial activity against Pseudomonas aeruginosa 1526-08

MIC90 (Pseudomonas aeruginosa [1]): 0.125 mg/L (≈ 0.172 µM)
MIC90 (Pseudomonas aeruginosa [2]): 0.125 mg/L (≈ 0.172 µM)
MIC90 (Pseudomonas aeruginosa [3]): 0.125 mg/L (≈ 0.172 µM)
MIC90 (Pseudomonas aeruginosa [4]): 0.03 mg/L (≈ 0.0412 µM)
MIC90 (Pseudomonas aeruginosa [5]): 0.25 mg/L (≈ 0.343 µM)
MIC90 (Pseudomonas aeruginosa [6]): 0.25 mg/L (≈ 0.343 µM)
MIC90 (Pseudomonas aeruginosa [7]): 0.25 mg/L (≈ 0.343 µM)
MIC90 (Pseudomonas aeruginosa [8]): 0.015 mg/L (≈ 0.0206 µM)
MIC90 (Pseudomonas aeruginosa [9]): 0.25 mg/L (≈ 0.343 µM)
MIC90 (Pseudomonas aeruginosa [10]): 0.25 mg/L (≈ 0.343 µM)
MIC90 (Pseudomonas aeruginosa [11]): 0.06 mg/L (≈ 0.0823 µM)
MIC90 (Pseudomonas aeruginosa [12]): 0.06 mg/L (≈ 0.0823 µM)
MIC90 (Pseudomonas aeruginosa [13]): 0.125 mg/L (≈ 0.172 µM)
MIC90 (Pseudomonas aeruginosa [14]): 0.06 mg/L (≈ 0.0823 µM)
MIC90 (Pseudomonas aeruginosa [15]): 0.06 mg/L (≈ 0.0823 µM)
MIC90 (Pseudomonas aeruginosa [16]): 0.03 mg/L (≈ 0.0412 µM)
MIC90 (Pseudomonas aeruginosa [17]): 0.25 mg/L (≈ 0.343 µM)
MIC90 (Pseudomonas aeruginosa [18]): 0.06 mg/L (≈ 0.0823 µM)
MIC90 (Pseudomonas aeruginosa [19]): 0.5 mg/L (≈ 0.686 µM)
MIC90 (Pseudomonas aeruginosa [20]): 0.06 mg/L (≈ 0.0823 µM)
MIC90 (Pseudomonas aeruginosa [21]): 0.06 mg/L (≈ 0.0823 µM)
MIC90 (Pseudomonas aeruginosa [22]): 0.25 mg/L (≈ 0.343 µM)
MIC90 (Pseudomonas aeruginosa [23]): 0.5 mg/L (≈ 0.686 µM)
MIC90 (Pseudomonas aeruginosa [24]): 0.06 mg/L (≈ 0.0823 µM)
MIC90 (Pseudomonas aeruginosa [25]): 0.5 mg/L (≈ 0.686 µM)
MIC90 (Pseudomonas aeruginosa [26]): 2 mg/L (≈ 2.74 µM)
MIC90 (Pseudomonas aeruginosa [27]): 0.125 mg/L (≈ 0.172 µM)
MIC90 (Pseudomonas aeruginosa [28]): 0.25 mg/L (≈ 0.343 µM)
MIC90 (Pseudomonas aeruginosa [29]): 0.06 mg/L (≈ 0.0823 µM)
MIC90 (Pseudomonas aeruginosa [30]): 0.03 mg/L (≈ 0.0412 µM)
MIC90 (Pseudomonas aeruginosa [31]): 0.125 mg/L (≈ 0.172 µM)
MIC90 (Pseudomonas aeruginosa [32]): 0.015 mg/L (≈ 0.0206 µM)
MIC90 (Pseudomonas aeruginosa [33]): 0.25 mg/L (≈ 0.343 µM)
MIC90 (Pseudomonas aeruginosa [34]): 4 mg/L (≈ 5.49 µM)
MIC90 (Pseudomonas aeruginosa [35]): 0.125 mg/L (≈ 0.172 µM)
MIC90 (Pseudomonas aeruginosa [36]): 0.125 mg/L (≈ 0.172 µM)
MIC90 (Pseudomonas aeruginosa [37]): 0.125 mg/L (≈ 0.172 µM)
MIC90 (Pseudomonas aeruginosa [38]): 0.25 mg/L (≈ 0.343 µM)
MIC90 (Pseudomonas aeruginosa [39]): 0.03 mg/L (≈ 0.0412 µM)
MIC90 (Pseudomonas aeruginosa [40]): 0.25 mg/L (≈ 0.343 µM)
MIC90 (Pseudomonas aeruginosa [41]): 0.125 mg/L (≈ 0.172 µM)
MIC90 (Pseudomonas aeruginosa [42]): 0.25 mg/L (≈ 0.343 µM)
MIC90 (Pseudomonas aeruginosa [43]): 0.125 mg/L (≈ 0.172 µM)
MIC90 (Pseudomonas aeruginosa [44]): 0.125 mg/L (≈ 0.172 µM)
MIC90 (Pseudomonas aeruginosa [45]): 0.03 mg/L (≈ 0.0412 µM)
MIC90 (Pseudomonas aeruginosa [46]): 1 mg/L (≈ 1.37 µM)
MIC90 (Pseudomonas aeruginosa [47]): 1 mg/L (≈ 1.37 µM)
MIC90 (Pseudomonas aeruginosa [48]): 0.125 mg/L (≈ 0.172 µM)
MIC90 (Pseudomonas aeruginosa [49]): 0.25 mg/L (≈ 0.343 µM)
MIC90 (Pseudomonas aeruginosa [50]): 0.5 mg/L (≈ 0.686 µM)
MIC90 (Pseudomonas aeruginosa [51]): 0.125 mg/L (≈ 0.172 µM)
SMILES: C[C@H]1[C@H](NC(=O)/C(=N\OC(C)(C)C(=O)O)c2csc(N)n2)C(=O)N1C(=O)NS(=O)(=O)n1nc(-c2cc(=O)c(O)c[nH]2)n(C[C@@H](O)CO)c1=O

From ChEMBL document CHEMBL3217532, “New analyses of MIC90 data to aid antibacterial drug discovery” (2011)
